Assay results: paper PMC12677843, “Multidisciplinary Preclinical Investigations on Ferrocenyl, Ruthenocenyl, and Benzyl Derivatives of Niridazole as New Drug Candidates against Schistosomiasis” (Chemmedchem, 2025)
pEC50: −log10 of the molar value. Read-outs that look alike come from different tables or passages of the source.

Legend:
adult S. mansoni = test: In vitro drug sensitivity assay on adult S. mansoni (microscopic viability scoring); format: cell-based, Schistosoma mansoni; settings: for drug effect at 50 µM on adult S. mansoni: 72 h incubation, normalized to DMSO control, active if ≥60%; for pEC50: 37 °C, 5% CO2; for mean drug effect at 10 µM on adult S. mansoni, 24 h / mean drug effect at 10 µM on adult S. mansoni, 48 h / mean drug effect at 10 µM on adult S. mansoni, 72 h: in percentage of DMSO control; for Fold activity of niridazole: potency on adult S. mansoni relative to niridazole, EC50 at 72 h
Procedure: Figure 3 In vitro activity at 50 µM of the 12 compounds on adult S. mansoni. Adult schistosomes were incubated in culture media for 72 h at 37 °C and 5% CO2 with either compound (50 µM) or a DMSO (0.5%) control. The viability of the worms was microscopically evaluated and scored (0—3, in 0.5 steps) every 24 h. Results are from two independent experiments, each performed in duplicate. Drug activities were normalized to the DMSO controls. Data represent mean ± SD in percentage of DMSO control. […]
In vitro evaluation on adult S. mansoni
After a week for acclimatization to the new environment with controlled conditions (temperature: 22 °C ± 2 °C, humidity: 50 % ± 10 %, 12:12 h light/dark photocycle), four-week-old female NMRI mice (Charles River, Sulzfeld, Germany) were subcutaneously infected with approximately 100 cercariae to establish the S. mansoni infection. In the S. mansoni infected mice the worms were allowed to develop for 7 weeks into the adult stage, before they were extracted from the mesenteric veins of the euthanized mice. The adult worms were placed into RPMI 1640 (Gibco, Waltham MA, USA) medium supplemented with 1 % penicillin/streptomycin mixture and 5 % iFCS at 37 °C and 5 % CO 2. The drug sensitivity assay was set up in a 24-well plate with two wells containing each two pairs of S. mansoni worms per compound and concentration.
The final volume per well was 2 mL, containing the culture medium and the corresponding amount of drug dissolved in DMSO. The maximum concentration tested was 50 µM, corresponding to 0.5 % DMSO, to which all the other wells were adapted […]
to, so that all test concentrations contained always the same amount of DMSO.
Additionally, 2 wells with negative controls containing only DMSO and the culture medium were included. After an incubation period of 72 h at 37 °C and 5 % CO 2, the worms were microscopically evaluated. The drug effect was determined 24, 48 and 72 h post-exposure based on the phenotype of the adult worms, using a viability scale ranging from three referring to viable, motile worms with no change in their tegument to zero standing for the death of the worms.
All described in vitro studies with mice involved, were conducted at the Swiss Tropical and Public Health Institute, first in Basel, later in Allschwil, and had the approval by the corresponding veterinary authorities of the Canton Basel-Stadt (permit no. 2070)

[1] = test system: S. mansoni newly transformed schistosomula (NTS); test: In vitro evaluation on newly transformed schistosomula (NTS); format: cell-based, Schistosoma mansoni; settings: for pEC50: 72 h incubation, 37 °C, 5% CO2; for drug effect at 50 µM on S. mansoni NTS: highest tested concentration 50 µM
Procedure: 2. Experimental section for biological experiments
Stock solutions of the test compounds
Stock solution of a concentration of 10 mM in pure DMSO (Sigma-Aldrich, Switzerland) were prepared of the 12 compounds, these stock solutions were used for all in vitro evaluations from activity tests in S. mansoni to the cytotoxic determinations in HUH7 hepatocyte-derived carcinoma cells, and in SH-SY5Y neuroblastoma cells.
The solutions were thoroughly vortexed and sonicated to enable a good dissolution of the compounds and homogenous stock solutions.
2.1 In vitro evaluations in S. mansoni
In vitro evaluation on newly transformed schistosomula (NTS)
To obtain newly transformed schistosomula (NTS) the lifecycle of S. mansoni (strain originates from West Africa, Liberia) is maintained at the Swiss Tropical and Public Health Institute (Swiss TPH). As previously described, cercariae are collected from infected Biomphalaria glabrata snails and then mechanically transformed into NTS. 8 After HBSS (Gibco, Waltham MA, USA) washing to get rid of the detached tails, the NTS were kept overnight (min. 12 h, max. 24 h) in culture medium at 37 °C and 5 % CO2 to complete their transformation process, before the drug sensitivity assay was started. The drug assays were performed in the same culture medium consisting of medium M199 (Gibco, Waltham MA, USA) supplemented with 5 % v/v inactivated fetal calf serum (iFCS; Bioconcept AG, Allschwil, Switzerland), 1% antibiotics mixture developed by Mäser et al., 9 and 1 % penicillin 10,000 U/mL, and streptomycin 10 mg/mL solution (Sigma-Aldrich, Buchs, Switzerland). The assay was performed in a 96-well plate, with 30−40 NTS per well in a final volume of 250 μL. NTS incubated in culture medium containing 0.5 % DMSO but no drug served as negative controls.
Microscopic evaluation was performed after 24, 48 and 72 h of incubation of the parasites at 37 °C and 5 % CO 2. Their overall viability was scored from 0 (death) to 3 (full viability) by a phenotypic screening method based on their motility, morphology, […]
and granularity. […]

[2] = Stability in DMSO-d6 monitored by 1H NMR; format: physicochemical; settings: room temperature, 0, 6, 24, 30 and 48 h
Procedure: Stability is a key factor that needs to be investigated in medicinal chemistry, particularly with metal complexes.^[ [44] ^] We randomly chose four niridazole derivatives that we dissolved in DMSO‐d 6 (A3, B1, C2, and D1). We then monitored by ^1H NMR spectroscopy any change in the spectra after 0, 6, 24, 30, and 48 h at room temperature. No shifted peaks or new peaks were found for all the tested compounds over 2 days, showing that they are stable in DMSO‐d 6. The NMR spectra of these studies can be found in the Supporting Information (Figure S32–S35).
Figure S31 DEPT spectrum of C2
1H NMR spectra for stability
Preparation of the control samples for 1H NMR analysis: Compounds B1, D1, A3 and
C2 were dissolved in DMSO- d6. Compound A2 was dissolved in DMSO- d6 with D2O
(4:1, v/v). NMR spectra were recorded in deuterated solvents on Bruker Avance-400
in the room temperature for 0, 6, 24, 30 and 48 hours or 0, 3, 6 and 24 hours. […]

juvenile S. mansoni = test: In vitro drug sensitivity assay on juvenile S. mansoni; format: cell-based, Schistosoma mansoni; settings: 72 h incubation, 37 °C, 5% CO2
Procedure: Juvenile worms were gained through cultivation of NTS as previously described. 10 In short, NTS were obtained as described above, then directly after the mechanical transformation process the newly transformed schistosomula were placed in a special culturing medium. The culture medium consists of Panserin 401, w: L-Glutamine, serum free all-round medium (Pan Biotech, Aidenbach, Germany) supplemented with 20 % human serum and 500 U/mL penicillin, […] streptomycin (LuBioScience, Switzerland). 96-well transparent polystyrene flat bottom plates were used for the in vitro growth procedure, with 40 to 60 NTS per well in 100 µL culture medium. The bordering wells of the plate were filled solely with medium to counteract evaporation and to keep the humidity as steady as possible. The plates were incubated for 21 days at 5 % CO2 and at 37 °C, with regular medium changes every 3 to 4 days. After the 21 days culturing period, the schistosomulae developed into juveniles. For the drug sensitivity assay, juvenile worms were incubated over 72 h (5 % CO 2 and 37 °C) with the test compound in the same medium, as used for the culturing process. In a 96-well plate, 250 µL medium containing the test compound and six juvenile worms, ideally of both sexes were placed in each well. All compounds were tested twice independently at 50, 10, 5 and 1 µM in duplicates. The viability of the worms was evaluated microscopically after 24, 48 and 72 h of continuous drug exposure using the same phenotypic screening method as described before. […]

[3] = 72 h drug exposure, read-out: EC50 on adult S. mansoni, 72 h
[4] = Schistosoma mansoni, 72 h, 72 h drug exposure, read-out: EC50 on adult S. mansoni, 72 h
[5] = 24 h drug exposure, read-out: EC50 on adult S. mansoni, 24 h
[6] = 48 h drug exposure, read-out: EC50 on adult S. mansoni, 48 h

Compound	drug effect at 50 µM on adult S. mansoni (adult S. mansoni)	pEC50 (adult S. mansoni; [3])	pEC50 [1]	drug effect at 50 µM on S. mansoni NTS [1]	stability in DMSO-d6 (1H NMR) [2]	pEC50 (adult S. mansoni; [4])	pEC50 ([1]; Schistosoma mansoni)	mean drug effect at 10 µM on adult S. mansoni, 24 h (adult S. mansoni; 24 h) [%]	mean drug effect at 10 µM on adult S. mansoni, 48 h (adult S. mansoni; 48 h) [%]	mean drug effect at 10 µM on adult S. mansoni, 72 h (adult S. mansoni; 72 h) [%]	pEC50 (adult S. mansoni; [5])	pEC50 (adult S. mansoni; Schistosoma mansoni, 24 h, 24 h drug exposure, read-out: EC50 on adult S. mansoni, 24 h)	pEC50 (adult S. mansoni; Schistosoma mansoni, 48 h, 48 h drug exposure, read-out: EC50 on adult S. mansoni, 48 h)	Fold activity of niridazole (adult S. mansoni)	pEC50 (juvenile S. mansoni; Schistosoma mansoni)	pEC50 (juvenile S. mansoni)	pEC50 (adult S. mansoni; [6])
O=C1N(CCCCCC[c-]2cccc2)CCN1c1ncc([N+](=O)[O-])s1.[Fe+2].c1cc[cH-]c1 [Compound A4]	No drug effect	< 4.30	< 4.30	No drug effect	–	–	–	–	–	–	–	–	–	–	–	–	–
O=C1N(Cc2ccccc2)CCN1c1ncc([N+](=O)[O-])s1 [Compound C2]	No drug effect	–	–	No drug effect	stable	< 4.30	< 4.30	–	–	–	–	–	–	–	–	–	–
O=C(Nc1ncc([N+](=O)[O-])s1)C12CC3CC(CC(C3)C1)C2 [Compound D1]	–	–	–	–	stable	5.43	5.10	55.18	66.75	65.76	5.01	> 5.00	5.38	1.5	4.53	–	–
Nc1ncc([N+](=O)[O-])s1 [Compound 2]	No drug effect	–	–	No drug effect	–	< 4.30	< 4.30	–	–	–	–	–	–	–	–	–	–
O=C1N(C[c-]2cccc2)CCN1c1ncc([N+](=O)[O-])s1.[Ru+2].c1cc[cH-]c1 [Compound B2]	less active than niridazole	5.49	< 4.30	–	–	–	–	31.28	44.99	65.57	4.42	–	–	1.8	–	5.10	–
C=CC([c-]1cccc1)N1CCN(c2ncc([N+](=O)[O-])s2)C1=O.[Fe+2].c1cc[cH-]c1 (racemic) [Compound A5]	–	5.82	< 4.30	–	–	–	–	36.19	57.59	–	< 4.30	–	–	3.8	–	4.91	5.28
O=C1N(C[c-]2cccc2)CCN1c1ncc([N+](=O)[O-])s1.[Fe+2].c1cc[cH-]c1 [Compound A3]	less active than niridazole	5.46	< 4.30	–	stable	–	–	30.75	44.28	66.09	4.30	–	–	1.6	–	5.24	5.01
O=C(Nc1ncc([N+](=O)[O-])s1)[c-]1cccc1.[Ru+2].c1cc[cH-]c1 [Compound B1]	less active than niridazole	5.16	< 4.30	–	stable	–	–	45.53	44.35	57.20	–	–	–	–	–	< 4.30	–
